Results reported in patent US9340590B2 (priority 2011, dated 2016).
pIC50: −log10 of the molar value. Read-outs that look alike come from different tables or passages of the source. Positions of bridges follow the written chain, without caps; N, C: chain ends. Non-standard residues stand in square brackets, D forms with d. Residues, ends and D or L forms follow the SMILES beside them. Pra = C#CC[C@H](N)C(=O)O

How the values were obtained:
Test in all cases: cell-based
hNav1.7 = hNav1.7 (Homo sapiens, UniProt Q15858); format: cell-based; details: IonWorks Quattro, use-dependent protocol, hNav1.7; read-out: IWQ Use Nav1.7
hNav1.5 = hNav1.5 (Homo sapiens, UniProt Q14524)
hNav1.3 = hNav1.3 (Homo sapiens, UniProt Q9NY46); details: IonWorks Quattro, use-dependent protocol, hNav1.3; read-out: IWQ Use Nav1.3
[1] = IonWorks Quattro, use-dependent protocol, hNav1.5, read-out: IWQ Use Nav1.5

Chain of hNav1.7 (Q15858 whole entry, looked up): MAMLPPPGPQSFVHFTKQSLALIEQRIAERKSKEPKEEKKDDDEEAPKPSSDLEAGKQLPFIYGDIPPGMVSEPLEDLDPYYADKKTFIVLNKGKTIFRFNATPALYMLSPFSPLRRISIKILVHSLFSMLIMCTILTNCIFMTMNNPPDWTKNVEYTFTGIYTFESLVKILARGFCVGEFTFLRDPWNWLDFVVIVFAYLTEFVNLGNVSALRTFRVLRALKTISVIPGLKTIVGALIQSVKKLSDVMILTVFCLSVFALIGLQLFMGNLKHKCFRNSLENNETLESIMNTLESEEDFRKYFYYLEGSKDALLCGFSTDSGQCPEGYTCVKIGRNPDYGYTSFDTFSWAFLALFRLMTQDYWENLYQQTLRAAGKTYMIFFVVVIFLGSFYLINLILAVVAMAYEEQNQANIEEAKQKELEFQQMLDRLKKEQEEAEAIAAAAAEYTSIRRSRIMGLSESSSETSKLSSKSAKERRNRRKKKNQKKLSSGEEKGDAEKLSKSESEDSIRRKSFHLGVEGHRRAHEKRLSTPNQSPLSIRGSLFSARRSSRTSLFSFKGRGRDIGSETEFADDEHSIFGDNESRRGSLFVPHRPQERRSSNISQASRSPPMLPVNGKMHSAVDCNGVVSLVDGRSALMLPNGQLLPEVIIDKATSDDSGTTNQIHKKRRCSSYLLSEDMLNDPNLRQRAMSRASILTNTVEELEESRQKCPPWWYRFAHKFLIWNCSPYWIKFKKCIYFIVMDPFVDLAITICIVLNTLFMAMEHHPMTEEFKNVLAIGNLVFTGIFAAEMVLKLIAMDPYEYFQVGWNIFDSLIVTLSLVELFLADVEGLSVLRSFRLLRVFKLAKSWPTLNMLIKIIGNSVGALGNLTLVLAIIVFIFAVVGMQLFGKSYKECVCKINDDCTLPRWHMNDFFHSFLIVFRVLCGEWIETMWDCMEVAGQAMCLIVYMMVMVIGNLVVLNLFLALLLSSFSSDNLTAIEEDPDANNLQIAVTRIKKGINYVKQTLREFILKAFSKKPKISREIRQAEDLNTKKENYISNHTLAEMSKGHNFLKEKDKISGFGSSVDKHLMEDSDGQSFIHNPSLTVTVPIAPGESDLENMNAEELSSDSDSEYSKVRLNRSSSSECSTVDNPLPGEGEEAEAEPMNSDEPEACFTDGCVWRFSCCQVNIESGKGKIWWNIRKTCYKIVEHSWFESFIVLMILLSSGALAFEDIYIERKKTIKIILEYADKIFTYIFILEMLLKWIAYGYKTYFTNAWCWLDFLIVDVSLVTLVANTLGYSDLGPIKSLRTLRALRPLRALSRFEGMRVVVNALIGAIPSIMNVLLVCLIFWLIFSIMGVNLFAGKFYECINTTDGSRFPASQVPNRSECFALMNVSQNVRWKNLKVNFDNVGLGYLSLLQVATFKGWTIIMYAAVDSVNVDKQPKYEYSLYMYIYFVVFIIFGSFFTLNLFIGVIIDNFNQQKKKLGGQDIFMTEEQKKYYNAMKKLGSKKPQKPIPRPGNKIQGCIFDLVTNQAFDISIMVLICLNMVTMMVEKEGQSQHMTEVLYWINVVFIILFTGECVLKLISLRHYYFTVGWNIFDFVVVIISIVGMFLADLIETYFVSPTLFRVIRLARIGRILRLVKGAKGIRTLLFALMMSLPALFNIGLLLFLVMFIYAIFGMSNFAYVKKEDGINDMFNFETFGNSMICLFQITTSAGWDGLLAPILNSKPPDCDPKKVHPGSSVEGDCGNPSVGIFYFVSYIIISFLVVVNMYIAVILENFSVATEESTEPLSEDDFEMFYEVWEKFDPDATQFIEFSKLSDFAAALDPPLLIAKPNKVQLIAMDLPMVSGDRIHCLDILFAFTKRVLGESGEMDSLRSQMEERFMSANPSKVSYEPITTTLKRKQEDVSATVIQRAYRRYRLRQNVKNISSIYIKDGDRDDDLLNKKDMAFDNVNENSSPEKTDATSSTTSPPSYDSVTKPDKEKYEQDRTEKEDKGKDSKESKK
Chain of hNav1.3 (Q9NY46 whole entry, looked up): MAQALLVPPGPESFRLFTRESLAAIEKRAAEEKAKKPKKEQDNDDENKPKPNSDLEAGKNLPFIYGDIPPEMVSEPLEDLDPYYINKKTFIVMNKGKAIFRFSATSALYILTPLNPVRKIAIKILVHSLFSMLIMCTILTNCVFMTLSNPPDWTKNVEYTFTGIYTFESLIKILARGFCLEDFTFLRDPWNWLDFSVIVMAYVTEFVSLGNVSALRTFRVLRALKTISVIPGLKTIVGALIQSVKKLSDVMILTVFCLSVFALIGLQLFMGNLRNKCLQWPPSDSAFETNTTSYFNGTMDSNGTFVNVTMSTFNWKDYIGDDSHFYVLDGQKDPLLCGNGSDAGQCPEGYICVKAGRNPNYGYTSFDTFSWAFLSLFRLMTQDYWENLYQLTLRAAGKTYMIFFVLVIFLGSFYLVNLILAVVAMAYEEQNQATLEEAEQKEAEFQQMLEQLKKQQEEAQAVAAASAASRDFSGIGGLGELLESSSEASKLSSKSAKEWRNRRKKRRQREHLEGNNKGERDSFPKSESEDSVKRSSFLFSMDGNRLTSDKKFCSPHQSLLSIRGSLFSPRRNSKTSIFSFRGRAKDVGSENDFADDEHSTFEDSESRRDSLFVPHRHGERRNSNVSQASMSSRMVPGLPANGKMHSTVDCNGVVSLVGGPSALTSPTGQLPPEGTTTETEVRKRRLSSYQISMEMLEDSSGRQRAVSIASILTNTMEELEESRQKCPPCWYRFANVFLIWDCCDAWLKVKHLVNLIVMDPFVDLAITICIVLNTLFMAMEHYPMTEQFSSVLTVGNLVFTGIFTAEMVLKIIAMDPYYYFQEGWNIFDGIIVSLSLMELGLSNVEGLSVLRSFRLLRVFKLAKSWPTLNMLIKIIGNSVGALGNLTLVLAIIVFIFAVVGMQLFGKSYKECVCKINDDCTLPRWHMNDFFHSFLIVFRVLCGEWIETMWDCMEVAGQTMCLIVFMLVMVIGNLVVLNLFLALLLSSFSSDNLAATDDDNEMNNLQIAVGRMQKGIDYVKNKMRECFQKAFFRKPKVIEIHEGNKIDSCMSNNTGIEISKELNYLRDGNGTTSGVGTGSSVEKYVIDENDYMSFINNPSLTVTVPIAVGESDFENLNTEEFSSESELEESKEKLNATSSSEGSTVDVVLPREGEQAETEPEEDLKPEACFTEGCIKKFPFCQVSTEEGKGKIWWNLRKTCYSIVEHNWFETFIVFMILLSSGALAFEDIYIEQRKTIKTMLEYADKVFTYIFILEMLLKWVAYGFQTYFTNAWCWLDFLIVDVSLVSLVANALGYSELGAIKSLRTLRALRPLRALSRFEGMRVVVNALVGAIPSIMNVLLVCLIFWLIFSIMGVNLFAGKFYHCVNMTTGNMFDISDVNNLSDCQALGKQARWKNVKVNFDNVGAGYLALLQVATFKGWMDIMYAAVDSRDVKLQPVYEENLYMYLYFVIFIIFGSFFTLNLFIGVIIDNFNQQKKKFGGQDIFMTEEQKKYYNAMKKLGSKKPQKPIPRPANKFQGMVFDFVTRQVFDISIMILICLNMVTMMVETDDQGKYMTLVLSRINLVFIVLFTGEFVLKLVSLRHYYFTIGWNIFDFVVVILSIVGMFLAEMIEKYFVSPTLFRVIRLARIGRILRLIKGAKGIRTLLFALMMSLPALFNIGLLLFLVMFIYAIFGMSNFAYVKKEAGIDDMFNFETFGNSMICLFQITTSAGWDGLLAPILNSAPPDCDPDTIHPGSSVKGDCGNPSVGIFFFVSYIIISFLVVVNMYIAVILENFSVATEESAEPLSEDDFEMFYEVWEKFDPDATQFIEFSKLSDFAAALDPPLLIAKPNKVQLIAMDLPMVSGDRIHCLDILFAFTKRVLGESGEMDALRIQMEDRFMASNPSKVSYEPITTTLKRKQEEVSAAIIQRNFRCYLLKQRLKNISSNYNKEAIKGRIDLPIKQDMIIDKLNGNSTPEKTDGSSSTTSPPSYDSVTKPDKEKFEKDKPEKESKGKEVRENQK

SMILES | pIC50 (hNav1.7) | pIC50 (hNav1.5; [1]) | pIC50 (hNav1.3) | pIC50 (hNav1.5; IWQ Use Nav1.5)
CC[C@H](C)[C@@H]1NC(=O)[C@@H]2CSSC[C@@H]3NC(=O)[C@H](C(C)C)NC(=O)[C@H](CC(C)C)NC(=O)[C@H](CC(N)=O)NC(=O)[C@@H]4CCCN4C(=O)[C@H](CCCNC(=N)N)NC(=O)[C@H](CSSC[C@H](NC(=O)[C@@H](N)CC(=O)O)C(=O)N[C@@H](CC(C)C)C(=O)NCC(=O)NCCC(=O)N[C@@H](CC(C)C)C(=O)N[C@@H](CCCNC(=N)N)C(=O)N[C@@H](CCCCN)C(=O)N2)NC(=O)[C@H](CSSC[C@@H](C(=O)N[C@@H](CCCCN)C(=O)N[C@@H](Cc2ccc(O)cc2)C(=O)N[C@H](C(=O)N[C@@H](Cc2ccccc2)C(N)=O)C(C)C)NC(=O)[C@H](Cc2c[nH]c4ccccc24)NC(=O)[C@H](CCCCN)NC(=O)[C@H](Cc2c[nH]cn2)NC(=O)[C@H]([C@@H](C)O)NC(=O)[C@H](CCCNC(=N)N)NC(=O)[C@H](CO)NC3=O)NC(=O)[C@H](CCCCN)NC(=O)[C@H](CC(=O)O)NC(=O)[C@H](CC(N)=O)NC(=O)[C@H](CC(=O)O)NC(=O)[C@@H]2CCCN2C1=O [compound 634] | 5.03 | 4.85 | 4.74 | 
CC[C@@H]1NC(=O)CNC(=O)[C@H](CC(C)C)NC(=O)[C@@H](NC(=O)[C@@H](N)CC(=O)O)CSSC[C@@H]2NC(=O)[C@@H]3CSSC[C@@H](C(=O)N[C@@H](CCCCN)C(=O)N[C@@H](Cc4ccc(O)cc4)C(=O)N[C@H](C(=O)N[C@@H](Cc4ccccc4)C(N)=O)C(C)C)NC(=O)[C@H](Cc4c[nH]c5ccccc45)NC(=O)[C@H](CCCCN)NC(=O)[C@H](Cc4c[nH]cn4)NC(=O)[C@H]([C@@H](C)O)NC(=O)[C@H](CCCNC(=N)N)NC(=O)[C@H](CO)NC(=O)[C@H](CSSC[C@H](NC(=O)[C@H](CCCCN)NC(=O)[C@H](CCCNC(=N)N)NC(=O)[C@H](CC(C)C)NC1=O)C(=O)N[C@@H]([C@@H](C)CC)C(=O)N1CCC[C@H]1C(=O)N[C@@H](CC(=O)O)C(=O)N[C@@H](CC(N)=O)C(=O)N[C@@H](CC(=O)O)C(=O)N[C@@H](CCCCN)C(=O)N3)NC(=O)[C@H](C(C)C)NC(=O)[C@H](CC(C)C)NC(=O)[C@H](CC(N)=O)NC(=O)[C@@H]1CCCN1C(=O)[C@H](CCCNC(=N)N)NC2=O [compound 636] | 6.54 | 4.78 | 6.00 | 
CCC[C@@H]1NC(=O)CNC(=O)[C@H](CC(C)C)NC(=O)[C@@H](NC(=O)[C@@H](N)CC(=O)O)CSSC[C@@H]2NC(=O)[C@@H]3CSSC[C@@H](C(=O)N[C@@H](CCCCN)C(=O)N[C@@H](Cc4ccc(O)cc4)C(=O)N[C@H](C(=O)N[C@@H](Cc4ccccc4)C(N)=O)C(C)C)NC(=O)[C@H](Cc4c[nH]c5ccccc45)NC(=O)[C@H](CCCCN)NC(=O)[C@H](Cc4c[nH]cn4)NC(=O)[C@H]([C@@H](C)O)NC(=O)[C@H](CCCNC(=N)N)NC(=O)[C@H](CO)NC(=O)[C@H](CSSC[C@H](NC(=O)[C@H](CCCCN)NC(=O)[C@H](CCCNC(=N)N)NC(=O)[C@H](CC(C)C)NC1=O)C(=O)N[C@@H]([C@@H](C)CC)C(=O)N1CCC[C@H]1C(=O)N[C@@H](CC(=O)O)C(=O)N[C@@H](CC(N)=O)C(=O)N[C@@H](CC(=O)O)C(=O)N[C@@H](CCCCN)C(=O)N3)NC(=O)[C@H](C(C)C)NC(=O)[C@H](CC(C)C)NC(=O)[C@H](CC(N)=O)NC(=O)[C@@H]1CCCN1C(=O)[C@H](CCCNC(=N)N)NC2=O [compound 637] | 7.02 | 5.10 | 6.15 | 
CCCC[C@@H]1NC(=O)CNC(=O)[C@H](CC(C)C)NC(=O)[C@@H](NC(=O)[C@@H](N)CC(=O)O)CSSC[C@@H]2NC(=O)[C@@H]3CSSC[C@@H](C(=O)N[C@@H](CCCCN)C(=O)N[C@@H](Cc4ccc(O)cc4)C(=O)N[C@H](C(=O)N[C@@H](Cc4ccccc4)C(N)=O)C(C)C)NC(=O)[C@H](Cc4c[nH]c5ccccc45)NC(=O)[C@H](CCCCN)NC(=O)[C@H](Cc4c[nH]cn4)NC(=O)[C@H]([C@@H](C)O)NC(=O)[C@H](CCCNC(=N)N)NC(=O)[C@H](CO)NC(=O)[C@H](CSSC[C@H](NC(=O)[C@H](CCCCN)NC(=O)[C@H](CCCNC(=N)N)NC(=O)[C@H](CC(C)C)NC1=O)C(=O)N[C@@H]([C@@H](C)CC)C(=O)N1CCC[C@H]1C(=O)N[C@@H](CC(=O)O)C(=O)N[C@@H](CC(N)=O)C(=O)N[C@@H](CC(=O)O)C(=O)N[C@@H](CCCCN)C(=O)N3)NC(=O)[C@H](C(C)C)NC(=O)[C@H](CC(C)C)NC(=O)[C@H](CC(N)=O)NC(=O)[C@@H]1CCCN1C(=O)[C@H](CCCNC(=N)N)NC2=O [compound 638] | 7.60 | 4.97 | 7.00 | 
CCCCCCCC[C@@H]1NC(=O)CNC(=O)[C@H](CC(C)C)NC(=O)[C@@H](NC(=O)[C@@H](N)CC(=O)O)CSSC[C@@H]2NC(=O)[C@@H]3CSSC[C@@H](C(=O)N[C@@H](CCCCN)C(=O)N[C@@H](Cc4ccc(O)cc4)C(=O)N[C@H](C(=O)N[C@@H](Cc4ccccc4)C(N)=O)C(C)C)NC(=O)[C@H](Cc4c[nH]c5ccccc45)NC(=O)[C@H](CCCCN)NC(=O)[C@H](Cc4c[nH]cn4)NC(=O)[C@H]([C@@H](C)O)NC(=O)[C@H](CCCNC(=N)N)NC(=O)[C@H](CO)NC(=O)[C@H](CSSC[C@H](NC(=O)[C@H](CCCCN)NC(=O)[C@H](CCCNC(=N)N)NC(=O)[C@H](CC(C)C)NC1=O)C(=O)N[C@@H]([C@@H](C)CC)C(=O)N1CCC[C@H]1C(=O)N[C@@H](CC(=O)O)C(=O)N[C@@H](CC(N)=O)C(=O)N[C@@H](CC(=O)O)C(=O)N[C@@H](CCCCN)C(=O)N3)NC(=O)[C@H](C(C)C)NC(=O)[C@H](CC(C)C)NC(=O)[C@H](CC(N)=O)NC(=O)[C@@H]1CCCN1C(=O)[C@H](CCCNC(=N)N)NC2=O [compound 639] | 7.82 | 5.77 | 7.48 | 
C#CC[C@@H]1NC(=O)[C@H](CC(=O)O)NC(=O)[C@@H]2CCCN2C(=O)[C@H]([C@@H](C)CC)NC(=O)[C@@H]2CSSC[C@@H]3NC(=O)[C@H](C(C)C)NC(=O)[C@H](CC(C)C)NC(=O)[C@H](CC(N)=O)NC(=O)[C@@H]4CCCN4C(=O)[C@H](CCCNC(=N)N)NC(=O)[C@H](CSSC[C@H](NC(=O)[C@@H](N)CC(=O)O)C(=O)N[C@@H](CC(C)C)C(=O)NCC(=O)N[C@@H](C)C(=O)N[C@@H](Cc4ccccc4)C(=O)N[C@@H](CCCNC(=N)N)C(=O)N[C@@H](CCCCN)C(=O)N2)NC(=O)[C@H](CSSC[C@@H](C(=O)N[C@@H](CCCCN)C(=O)N[C@@H](Cc2ccc(O)cc2)C(=O)N[C@H](C(=O)N[C@@H](Cc2ccccc2)C(N)=O)C(C)C)NC(=O)[C@H](Cc2c[nH]c4ccccc24)NC(=O)[C@H](CCCNC(=N)N)NC(=O)[C@H](Cc2c[nH]cn2)NC(=O)[C@H](CC(C)C)NC(=O)[C@H](CCCNC(=N)N)NC(=O)[C@H](CO)NC3=O)NC(=O)[C@H](CCCCN)NC(=O)[C@H](CC(=O)O)NC1=O [compound 640] (H-DCLGAFRKCIPD[Pra]DKCCRPNLVCSRLHRWCKYVF-NH2; disulfide 2-17, 9-23, 16-30) | 6.99 | < 5.30 | 7.05 | 
CC[C@H](C)[C@@H]1NC(=O)[C@@H]2CSSC[C@@H]3NC(=O)[C@H](C(C)C)NC(=O)[C@H](CC(C)C)NC(=O)[C@H](CC(N)=O)NC(=O)[C@@H]4CCCN4C(=O)[C@H](CCCNC(=N)N)NC(=O)[C@H](CSSC[C@H](NC(=O)[C@@H](N)CC(=O)O)C(=O)N[C@@H](CC(C)C)C(=O)NCC(=O)N[C@@H](CCSC)C(=O)N[C@@H](CC(C)C)C(=O)N[C@@H](CCCNC(=N)N)C(=O)N[C@@H](CCCCN)C(=O)N2)NC(=O)[C@H](CSSC[C@@H](C(=O)N[C@@H](CCCCN)C(=O)N[C@@H](Cc2ccc(O)cc2)C(=O)N[C@H](C(=O)N[C@@H](Cc2ccccc2)C(N)=O)C(C)C)NC(=O)[C@H](Cc2c[nH]c4ccccc24)NC(=O)[C@H](CCCCN)NC(=O)[C@H](Cc2c[nH]cn2)NC(=O)[C@H]([C@@H](C)O)NC(=O)[C@H](CCCNC(=N)N)NC(=O)[C@H](CO)NC3=O)NC(=O)[C@H](CCCCN)NC(=O)[C@H](CC(=O)O)NC(=O)[C@H](CC(N)=O)NC(=O)[C@H](CC(=O)O)NC(=O)[C@@H]2CCCN2C1=O [compound 641] (H-DCLGMLRKCIPDNDKCCRPNLVCSRTHKWCKYVF-NH2; disulfide 2-17, 9-23, 16-30) | 7.16 |  | 6.62 | < 5.30
CC[C@H](C)[C@@H]1NC(=O)[C@@H]2CSSC[C@@H]3NC(=O)[C@H](C(C)C)NC(=O)[C@H](CC(C)C)NC(=O)[C@H](CC(N)=O)NC(=O)[C@@H]4CCCN4C(=O)[C@H](CCCNC(=N)N)NC(=O)[C@H](CSSC[C@H](NC(=O)[C@@H](N)CC(=O)O)C(=O)N[C@@H](CC(C)C)C(=O)NCC(=O)N[C@@H](Cc4cccnc4)C(=O)N[C@@H](CC(C)C)C(=O)N[C@@H](CCCNC(=N)N)C(=O)N[C@@H](CCCCN)C(=O)N2)NC(=O)[C@H](CSSC[C@@H](C(=O)N[C@@H](CCCCN)C(=O)N[C@@H](Cc2ccc(O)cc2)C(=O)N[C@H](C(=O)N[C@@H](Cc2ccccc2)C(N)=O)C(C)C)NC(=O)[C@H](Cc2c[nH]c4ccccc24)NC(=O)[C@H](CCCCN)NC(=O)[C@H](Cc2c[nH]cn2)NC(=O)[C@H]([C@@H](C)O)NC(=O)[C@H](CCCNC(=N)N)NC(=O)[C@H](CO)NC3=O)NC(=O)[C@H](CCCCN)NC(=O)[C@H](CC(=O)O)NC(=O)[C@H](CC(N)=O)NC(=O)[C@H](CC(=O)O)NC(=O)[C@@H]2CCCN2C1=O [compound 642] | 5.77 | < 5.30 | 5.41 | 
